Consider 21 substances from US20220259593A1, “CONTROL OF MAMMALIAN GENE DOSAGE USING CRISPR” (The Regents of the University of California, priority 2019, published 2022).

Data set [1] relates to K562 CRISPRi cells. The data set can be described thus: Perturb-seq pooled growth measurement (sgRNA counts, growth phenotype γ, relative activity). The data set is classed as cell-based, human. The settings on record: for gamma_day5 / gamma_day10: pooled growth phenotype γ of the Perturb-seq sgRNA; for gamma_day5: day 5, K562 CRISPRi cells; for gamma_day10: day 10, K562 CRISPRi cells; for relative_activity_day5: γ relative to perfectly matched sgRNA (_00) of the same gene, day 5. The method, boiled down:
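sgRNA abundance was sequenced from genomic DNA of the same transduced population sampled on days two, seven and twelve. Phenotype γ compares normalized day seven and twelve counts with day two. Day-seven values (five days of growth) define relative sgRNA activity.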

For data set [2], the system named is K562 CRISPRi cells. Described as above. The class given is cell-based, human. The settings on record: γ relative to perfectly matched sgRNA (_00) of the same gene, day 10.

In the data set with K562 CRISPRi cells [1], “RPL9_ + _39460483.23-P1P2_00 (guide GGATGTTTCTGTGCTCGTGG; listed as DNA, chemistry not fully specified)” came in with a gamma_day5 of −1.113, a gamma_day10 of −0.6699 and a relative_activity_day5 of 1. In the data set with K562 CRISPRi cells [2], this substance had a relative_activity_day10 of 1.

“RPL9_ + _39460483.23-P1P2_01 (guide GGATGATTCTGTGCTCGTGG; listed as DNA, chemistry not fully specified)”: in the data set on K562 CRISPRi cells [1], the gamma_day5 is −0.8528, the gamma_day10 is −0.4984 and the relative_activity_day5 is listed as 0.7661. Besides, in the data set with K562 CRISPRi cells [2], the relative_activity_day10 came out at 0.7441.

In the data set with K562 CRISPRi cells [1], “RPL9_ + _39460483.23-P1P2_04 (guide GGATGTTTCAGTGCTCGTGG; listed as DNA, chemistry not fully specified)” registered a gamma_day5 of −0.4171, a gamma_day10 of −0.2942 and a relative_activity_day5 of 0.3747. Further, in the data set on K562 CRISPRi cells [2], the relative_activity_day10 is 0.4392.

In the data set with K562 CRISPRi cells [1], “RPL9_ + _39460483.23-P1P2_05 (guide GGATGTTTCGGTGCTCGTGG; listed as DNA, chemistry not fully specified)” registered a gamma_day5 of −0.6073, a gamma_day10 of −0.3848 and a relative_activity_day5 of 0.5456. The substance further had a relative_activity_day10 in the data set with K562 CRISPRi cells [2] of 0.5745.

With “RPL9_ + _39460483.23-P1P2_07 (guide GGATGTTTCTGCGCTCGTGG; listed as DNA, chemistry not fully specified)”, in the data set with K562 CRISPRi cells [1], the gamma_day5 is −0.2924, the gamma_day10 is −0.2073 and the relative_activity_day5 is given as 0.2627. In the data set with K562 CRISPRi cells [2], this substance gave a relative_activity_day10 of 0.3095.

In the data set on K562 CRISPRi cells [1], “RPS14_ + _149829238.23-P1P2_00 (guide GAGGCCCGGGCGCGACAATC; listed as DNA, chemistry not fully specified)” gave a gamma_day5 of −0.7908, a gamma_day10 of −0.4995 and a relative_activity_day5 of 1. In the data set on K562 CRISPRi cells [2], this substance registered a relative_activity_day10 of 1.

Turning to “RPS14_ + _149829238.23-P1P2_01 (guide GAGACCCGGGCGCGACAATC; listed as DNA, chemistry not fully specified)”, in the data set with K562 CRISPRi cells [1], the gamma_day5 is on record as −0.7548, the gamma_day10 was −0.4807 and the relative_activity_day5 worked out at 0.9545. The relative_activity_day10 in the data set with K562 CRISPRi cells [2] is 0.9624.

“RPS14_ + _149829238.23-P1P2_02 (guide GAGGCCCTGGCGCGACAATC; listed as DNA, chemistry not fully specified)”: in the data set on K562 CRISPRi cells [1], the gamma_day5 was −0.5845, the gamma_day10 is −0.3829 and the relative_activity_day5 was 0.739. Further, the relative_activity_day10 in the data set on K562 CRISPRi cells [2] is listed as 0.7666.

Turning to “RPS14_ + _149829238.23-P1P2_04 (guide GAGGCCCGCGCGCGACAATC; listed as DNA, chemistry not fully specified)”, in the data set on K562 CRISPRi cells [1], the gamma_day5 is −0.3025, the gamma_day10 was −0.1958 and the relative_activity_day5 is 0.3825. In the data set on K562 CRISPRi cells [2], this substance gave a relative_activity_day10 of 0.3919.

Take “RPS14_ + _149829238.23-P1P2_08 (guide GAGGCCCGGGCTCGACAATC; listed as DNA, chemistry not fully specified)”: in the data set on K562 CRISPRi cells [1], the gamma_day5 is 0.02738, the gamma_day10 was −0.0006109 and the relative_activity_day5 is −0.03462. In the data set with K562 CRISPRi cells [2], this substance showed a relative_activity_day10 of 0.001223.

In the data set with K562 CRISPRi cells [1], “RPS14_ + _149829238.23-P1P2_13 (guide GAGGCCCGGGCGCGACAGTC; listed as DNA, chemistry not fully specified)” returned a gamma_day5 of −0.2119, a gamma_day10 of −0.1559 and a relative_activity_day5 of 0.268. In the data set on K562 CRISPRi cells [2], this substance registered a relative_activity_day10 of 0.3122.

In the data set with K562 CRISPRi cells [1], “RPS15_ −_1438413.23-P1P2_00 (guide GACCAAAGCGATCTCTTCTG; listed as DNA, chemistry not fully specified)” returned a gamma_day5 of −0.6212, a gamma_day10 of −0.376 and a relative_activity_day5 of 1. In the data set on K562 CRISPRi cells [2], this substance gave a relative_activity_day10 of 1.

Take “RPS15_ −_1438413.23-P1P2_01 (guide GACCAAACCGATCTCTTCTG; listed as DNA, chemistry not fully specified)”: in the data set with K562 CRISPRi cells [1], the gamma_day5 is recorded as 0.006616, the gamma_day10 was 0.001422 and the relative_activity_day5 was −0.01064. Moreover, the relative_activity_day10 in the data set on K562 CRISPRi cells [2] is −0.003782.

In the data set with K562 CRISPRi cells [1], “RPS15_ −_1438413.23-P1P2_02 (guide GACCAAGGCGATCTCTTCTG; listed as DNA, chemistry not fully specified)” gave a gamma_day5 of −0.4922, a gamma_day10 of −0.3145 and a relative_activity_day5 of 0.7923. The same substance displayed a relative_activity_day10 with K562 CRISPRi cells [2] of 0.8366.

For “RPS15_ −_1438413.23-P1P2_07 (guide GACCAAAGCGGTCTCTTCTG; listed as DNA, chemistry not fully specified)”, in the data set on K562 CRISPRi cells [1], the gamma_day5 is reported as −0.5221, the gamma_day10 was −0.3074 and the relative_activity_day5 came out at 0.8404. In the data set with K562 CRISPRi cells [2], this substance gave a relative_activity_day10 of 0.8176.

“RPS15_ −_1438413.23-P1P2_12 (guide GACCAAAGCGATCTCTTGTG; listed as DNA, chemistry not fully specified)”: in the data set with K562 CRISPRi cells [1], the gamma_day5 is 0.0311, the gamma_day10 stood at 0.01173 and the relative_activity_day5 worked out at 0.05005. The substance further yielded a relative_activity_day10 in the data set on K562 CRISPRi cells [2] of 0.03119.

For “RPS18_ + _33239917.23-P1P2_00 (guide GCTGCGATGCCGCTGGATCA; listed as DNA, chemistry not fully specified)”, in the data set on K562 CRISPRi cells [1], the gamma_day5 was −0.8169, the gamma_day10 is −0.503 and the relative_activity_day5 is given as 1. This substance showed a relative_activity_day10 with K562 CRISPRi cells [2] of 1.

In the data set with K562 CRISPRi cells [1], “RPS18_ + _33239917.23-P1P2_01 (guide GCTGCAATGCCGCTGGATCA; listed as DNA, chemistry not fully specified)” displayed a gamma_day5 of −0.5598, a gamma_day10 of −0.3779 and a relative_activity_day5 of 0.6853. For the same substance, the relative_activity_day10 with K562 CRISPRi cells [2] turned out to be 0.7514.

Consider “RPS18_ + _33239917.23-P1P2_02 (guide GCTGGGATGCCGCTGGATCA; listed as DNA, chemistry not fully specified)”, for which, in the data set on K562 CRISPRi cells [1], the gamma_day5 is on record as −0.4898, the gamma_day10 is on record as −0.3191 and the relative_activity_day5 turned out to be 0.5995. Moreover, in the data set with K562 CRISPRi cells [2], the relative_activity_day10 worked out at 0.6345.

On to “RPS18_ + _33239917.23-P1P2_04 (guide GCTGCGATCCCGCTGGATCA; listed as DNA, chemistry not fully specified)”, for which, in the data set on K562 CRISPRi cells [1], the gamma_day5 is −0.08697, the gamma_day10 is on record as −0.08068 and the relative_activity_day5 came to 0.1065. The substance also returned a relative_activity_day10 in the data set on K562 CRISPRi cells [2] of 0.1604.

With “RPS18_ + _33239917.23-P1P2_08 (guide GCTGCGATTCCGCTGGATCA; listed as DNA, chemistry not fully specified)”, in the data set on K562 CRISPRi cells [1], the gamma_day5 was −0.2228, the gamma_day10 was −0.1637 and the relative_activity_day5 came out at 0.2727. In the data set on K562 CRISPRi cells [2], this substance displayed a relative_activity_day10 of 0.3255.
